Reference: patent US20250170132A1, “SALTS AND POLYMORPHIC FORMS OF MENIN INHIBITORS AND PHARMACEUTICAL COMPOSITIONS THEREOF” (Syndax Pharmaceuticals, Inc., priority 2023, published 2025)

Tests used:
Format in all cases: physicochemical
[1] = Scale-up preparation of Form C with DVS
Method: Approximately 300 mg of Form A was weighed into a 4 mL glass vial and 2.5 mL of MeCN was added slowly to make a slurry. The sample vial was kept at 50° C. with stirring for 3 days. After 3 days, slurry material was isolated and dried at 40° C. with a N2 bleed.

[2] = Solution stability of Compound A sesquifumarate at 25° C. and 40° C.; conditions: for Appearance / Compound A Sesquifumarate Purity (Average % area) / Impurity A (Average % area) / pH: 50 mg/mL formulation
Method: The initial F1 and F2 formulations utilized Compound A sesquifumarate. The pH stability of Compound A sesquifumarate solutions was studied in water at pH 5.0, 5.5, and 6.0 over 4 weeks at 25° C. and 40° C. The desired concentration of 50 mg/mL was soluble at all pH values, although Compound A dissolution occurred more rapidly at lower pH. There was a single major degradant, designated as Impurity A (relative retention time [RRT]˜0.98).
Stability of formulations containing Compound A sesquifumarate was studied at 50 mg/mL in a formulation consisting of 0.07% advantame, 20 mM citrate, 1% grape flavor (FONA), 1% sodium chloride, and 0.02% propyl paraben at pH 6.5. Stability was measured over 4 weeks in glass vials at the accelerated condition of 25° C. Stability of the same formulation but at […] was also studied at the supra-accelerated condition of 40° C. These studies were conducted prior to preservative effectiveness testing and therefore used propyl paraben instead of the methylparaben sodium:potassium sorbate combination used in the final formulation.

[3] = Solution stability studies at accelerated conditions, counterion adduct (Impurity A); conditions: fumarate reacts with the pyrimidine ring; in solution and solid API
From the text: Compound A monocitrate monohydrate has at least two advantageously and unexpected characteristics. […] Second, in the manufacturing process, Compound A fumarate requires a separate slurrying step which results in a solvate with an organic solvent. Compound A monocitrate monohydrate salt is isolated directly from ethanol:water, no slurrying step is required. […] Additionally, the Compound A monocitrate forms a monohydrate instead of a solvate with one or more organic molecules.
Although this degradation pathway is more accelerated in solution it was also observed in the solid API. Formation of Impurity A was the reason why Compound A sesquifumarate API and drug product were stored at refrigerated temperatures.

[4] = Excipient compatibility study with Compound A sesquifumarate; conditions: for Change in appearance, XRPD or DSC: 8 weeks 25° C./60% RH or 4 weeks 40° C./75% RH
From the text: The first activity in developing a tablet formulation was selection of excipients. The main purpose of the excipient compatibility study was to evaluate changes in related substances, specifically Impurity A (relative retention time [RRT]˜0.98). […] However, formation of this degradant is not possible in product containing Compound A citrate, as it is formed by reaction of the sesquifumarate drug substance with the double bond in fumaric acid. A secondary purpose of the compatibility study was to assess changes in Compound A assay and physical properties. Even though formation of Impurity A is not possible for Compound A citrate, chemical and physical results of this study were still used to guide tablet excipient selection.
Common excipients were evaluated as part of the excipient compatibility study. Samples were incubated at 25° C./60% RH long-term condition as well as a 40° C./75% RH accelerated condition. Individual vials were removed for analysis at 0, 4, and 8 weeks. Samples were tested for appearance, Compound A sesquifumarate assay and related substances, X-ray powder diffraction (XRPD), and differential scanning calorimetry (DSC) at T-0 and 4 weeks for both long-term and accelerated conditions, and 8 weeks for the long-term condition. At 8 weeks, the accelerated condition samples were tested for Compound A sesquifumarate assay and related substances only. Assay and related substances were tested by reversed-phase ultra-performance liquid chromatography (RP-UPLC), with adjusted sample preparation to accommodate small sample amounts. Vials of Compound A sesquifumarate alone were used as controls.

[5] = Aqueous solubility of Compound A salts
Method: Solubility of Compound A citrate was determined in 3 different types of matrices: unbuffered water, citrate-buffered solutions from pH 3 to 6, and formulations consisting of citrate, advantame, methylparaben sodium, potassium sorbate, and sodium chloride at pH ranging from 3 to 6. Solubility in unbuffered water at ambient temperature was 38.5 mg/mL.
The target pH was reassessed when the F3 formulation was developed. Compound A citrate solubility studies were performed initially in simple buffered solutions to assess solubility trends as a function of pH. […] The target concentration of Compound A was therefore changed to 40 mg/mL as a compromise between drug substance and preservatives dissolution rate and stability.

[6] = Form C screening experiments
[7] = Exp. 1/5: reactive crystallization, material 166 mg, citric acid 51 mg, MeCN 1.0 mL, RT
[8] = Exp. 2/6: reactive crystallization, material 166 mg, citric acid 51 mg, EtOAc 1.0 mL, RT
[9] = Exp. 3/7: reactive crystallization, material 166 mg, citric acid 51 mg, MeCN 1.0 mL, 50 °C
[10] = Exp. 4/8: reactive crystallization, material 166 mg, citric acid 51 mg, EtOAc 1.0 mL, 50 °C

With `CC#N.CCN(C(=O)c1cc(F)ccc1Oc1cncnc1N1CC2(CCN(CC3CCC(NS(=O)(=O)CC)CC3)CC2)C1)C(C)C.O=C(O)CC(O)(CC(=O)O)C(=O)O` (stereo not shown) [Compound A citrate Form C] the “DVS (weight gain between 30%-80% RH)” value ([1]; 1st adsorption cycle) was 1.6%, the “DVS (weight gain between 30%-80% RH)” value ([1]; 2nd adsorption cycle) was 6.1% and the “Post DVS form” value ([1]; after DVS) was “changed to Form-A”.
With `CCN(C(=O)c1cc(F)ccc1Oc1cncnc1N1CC2(CCN(C[C@H]3CC[C@H](NS(=O)(=O)CC)CC3)CC2)C1)C(C)C.CCN(C(=O)c1cc(F)ccc1Oc1cncnc1N1CC2(CCN(C[C@H]3CC[C@H](NS(=O)(=O)CC)CC3)CC2)C1)C(C)C.O=C(O)/C=C/C(=O)O.O=C(O)/C=C/C(=O)O.O=C(O)/C=C/C(=O)O` [Compound A sesquifumarate] the Appearance ([2]; 25° C., 1 week) was “Clear”, the “Compound A Sesquifumarate Purity (Average % area)” value ([2]; 25° C., 1 week) was 99.77 % area and the “Impurity A (Average % area)” value ([2]; 25° C., 1 week) was 0.14 % area. The pH ([2]; 25° C., 1 week) was 6.6, the Appearance ([2]; 25° C., 2 weeks) was “Clear” and the “Compound A Sesquifumarate Purity (Average % area)” value ([2]; 25° C., 2 weeks) was 99.78 % area. The “Impurity A (Average % area)” value ([2]; 25° C., 2 weeks) was 0.13 % area, the pH ([2]; 25° C., 2 weeks) was 6.6 and the Appearance ([2]; 25° C., 4 weeks) was “Clear”. The “Compound A Sesquifumarate Purity (Average % area)” value ([2]; 25° C., 4 weeks) was 99.78 % area, the “Impurity A (Average % area)” value ([2]; 25° C., 4 weeks) was 0.14 % area and the pH ([2]; 25° C., 4 weeks) was 6.6. The Appearance ([2]; 25° C., time 0) was “Clear”, the “Compound A Sesquifumarate Purity (Average % area)” value ([2]; 25° C., time 0) was 99.78 % area and the “Impurity A (Average % area)” value ([2]; 25° C., time 0) was 0.14 % area. For the same compound, the pH ([2]; 25° C., time 0) was 6.5, the Appearance ([2]; 40° C., 1 week) was “Clear” and the “Compound A Sesquifumarate Purity (Average % area)” value ([2]; 40° C., 1 week) was 99.75 % area. For the same compound, the “Impurity A (Average % area)” value ([2]; 40° C., 1 week) was 0.17 % area, the pH ([2]; 40° C., 1 week) was 6.2 and the Appearance ([2]; 40° C., 2 weeks) was “Clear”. For the same compound, the “Compound A Sesquifumarate Purity (Average % area)” value ([2]; 40° C., 2 weeks) was 99.68 % area, the “Impurity A (Average % area)” value ([2]; 40° C., 2 weeks) was 0.24 % area and the pH ([2]; 40° C., 2 weeks) was 6.2. The Appearance ([2]; 40° C., 4 weeks) was “Clear”, the “Compound A Sesquifumarate Purity (Average % area)” value ([2]; 40° C., 4 weeks) was 99.58 % area and the “Impurity A (Average % area)” value ([2]; 40° C., 4 weeks) was 0.34 % area. The pH ([2]; 40° C., 4 weeks) was 6.3, the Appearance ([2]; 40° C., time 0) was “Clear” and the “Compound A Sesquifumarate Purity (Average % area)” value ([2]; 40° C., time 0) was 99.77 % area. For the same compound, the “Impurity A (Average % area)” value ([2]; 40° C., time 0) was 0.14 % area, the pH ([2]; 40° C., time 0) was 6.2 and the “Impurity A formation” value ([2]; water at pH 5.0, 5.5, 6.0, 4 weeks, 25° C. and 40° C.) was “increased in a temperature- and time-dependent manner”. For the same compound, the solubility ([2]; water at pH 5.0, 5.5 and 6.0) was at least 50 mg/mL, the “Chemical degradation forming impurity A” value [3] was “subject to a chemical degradation” and the “Change in appearance, XRPD or DSC” value ([4]; binary mixtures with five fillers) was “No change”. The “Impurity A” value ([4]; control sample and filler mixtures) was “increased in both control sample and excipient mixtures”, the “Trends in assay or related substances” value ([4]; four disintegrants) was “No trends” and the “Change in appearance, XRPD or DSC” value ([4]; four disintegrants) was “No change”. For the same compound, the “Trends in assay or related substances” value ([4]; glidant and lubricants) was “No trends”, the “Change in appearance, XRPD or DSC” value ([4]; glidant and lubricants) was “No change” and the “Trends in assay or related substances” value ([4]; three binders) was “No trends”. The “Change in appearance, XRPD or DSC” value ([4]; three binders) was “No change”, the “Trends in assay or related substances” value ([4]; two alkalizers) was “No trends” and the “Change in appearance, XRPD or DSC” value ([4]; two alkalizers) was “No change”. The “Impurity A formation” value ([4]; with Avicel PH 101, Avicel PH113, Avicel DG) was “did not increase formation of Impurity A”, the “Impurity A formation” value ([4]; with polyols mannitol and sorbitol) was “accelerate the degradant formation” and the “Biopharmaceutical Classification System solubility definition” value [5] was “highly soluble”. The pH of solution ([5]; 50 mg/mL Compound A solution in water) was “approximately 3.5”.
With `CCN(C(=O)c1cc(F)ccc1Oc1cncnc1N1CC2(CCN(C[C@H]3CC[C@H](NS(=O)(=O)CC)CC3)CC2)C1)C(C)C` [FB-1] the “Crystal Form” value [6, 7] was “Form A, w/pattern shift”, the “Crystal Form” value [6, 8] was “FB-1 w/extra peaks” and the “Crystal Form” value [6, 9] was “Form A → Form C”. For the same compound, the “Crystal Form” value [6, 10] was “Essentially Form C”, the “Crystal Form” value ([6]; Exp. 11: slurry conditioning, 166 mg, no citric acid, MeCN 1.0 mL, 50 °C) was “FB-1” and the “Crystal Form” value ([6]; Exp. 12: slurry conditioning, 166 mg, no citric acid, EtOAc 1.0 mL, 50 °C) was “FB-1”.
In the case of `CCN(C(=O)c1cc(F)ccc1Oc1cncnc1N1CC2(CCN(C[C@H]3CC[C@H](NS(=O)(=O)CC)CC3)CC2)C1)C(C)C` [FB-2], the “Crystal Form” value [6, 7] is reported as “Form A, w/pattern shift”, the “Crystal Form” value [6, 8] is reported as “FB-2 w/extra peaks” and the “Crystal Form” value [6, 9] is reported as “Form A → Form C”. For the same compound, the “Crystal Form” value [6, 10] was “Form A”, the “Crystal Form” value ([6]; Exp. 9: slurry conditioning, 166 mg, no citric acid, MeCN 1.0 mL, RT) was “FB-2” and the “Crystal Form” value ([6]; Exp. 10: slurry conditioning, 166 mg, no citric acid, EtOAc 1.0 mL, RT) was “FB-2”. The “Crystal Form” value ([6]; Exp. 13: reactive crystallization, citric acid 15 mg, MeCN 0.5 mL, RT (Form C in MeCN; Hazy → FB + Acid)) was “Form C”, the “Crystal Form” value ([6]; Exp. 14: reactive crystallization, citric acid 15 mg, MeCN 0.5 mL, RT (FB + Acid in MeCN → CL → Form C)) was “Form C” and the “Crystal Form” value ([6]; Exp. 15: citric acid 30 mg, MeCN 0.5 + 1.5 mL, RT, 1:2 of FB:Acid) was “Form C”.
